Measured values from PubChem BioAssay AID2060899 (Molecular Pharmacology Branch, DTP, NCI, 2025).

System: 565726-208-R1-J5-PDC complex spheroids, growth inhibition
Experiment: Anticancer human tumor 565726-208-R1-J5-PDC patient-derived pancreatic adenocarcinoma cell line growth inhibition [RAS]
Details: for IC50: curve of first compound; for viability, T/C: stronger effect = lower value
Summary of the method: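 Agents were tested in combination matrices in half-log decrements from a top concentration at or near clinical Cmax (10 microM if undetermined). Targets were multi-cell spheroids of tumour lines plus HUVEC and MSC stromal cells.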
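Further: spheroids exposed to compounds for seven days before readout.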
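Wherever viability, T/C is given: 100% = DMSO vehicle control viability.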

## NC1c2ccccc2OC12CCN(c1cnc3c(N4CCCc5ncccc54)n[nH]c3n1)CC2 (centres undefined) + C#Cc1c(F)ccc2cc(O)cc(-c3ncc4c(N5CC6CCC(C5)N6)nc(OCC56CCCN5CC(F)C6)nc4c3F)c12
Second compound 0.0316 µM
  IC50: > 10000 nM
Second compound 0.1 µM
  IC50: > 10000 nM
Second compound 0.316 µM
  IC50: > 10000 nM
Second compound 1 µM
  IC50: 838 nM
Second compound 3.16 µM
  IC50: 283 nM
Second compound 10 µM
  IC50: 88.2 nM
Second compound 0.0316 µM, first compound 0.0316 µM
  viability, T/C: 85.3%
Second compound 0.0316 µM, first compound 0.1 µM
  viability, T/C: 107%
Second compound 0.0316 µM, first compound 0.316 µM
  viability, T/C: 70.4%
Second compound 0.0316 µM, first compound 1 µM
  viability, T/C: 58.8%
Second compound 0.0316 µM, first compound 3.16 µM
  viability, T/C: 67.3%
Second compound 0.0316 µM, first compound 10 µM
  viability, T/C: 73.1%
Second compound 0.1 µM, first compound 0.0316 µM
  viability, T/C: 91.6%
Second compound 0.1 µM, first compound 0.1 µM
  viability, T/C: 101%
Second compound 0.1 µM, first compound 0.316 µM
  viability, T/C: 74.4%
Second compound 0.1 µM, first compound 1 µM
  viability, T/C: 58.1%
Second compound 0.1 µM, first compound 3.16 µM
  viability, T/C: 64.7%
Second compound 0.1 µM, first compound 10 µM
  viability, T/C: 78.4%
Second compound 0.316 µM, first compound 0.0316 µM
  viability, T/C: 104%
Second compound 0.316 µM, first compound 0.1 µM
  viability, T/C: 105%
Second compound 0.316 µM, first compound 0.316 µM
  viability, T/C: 62%
Second compound 0.316 µM, first compound 1 µM
  viability, T/C: 51.2%
Second compound 0.316 µM, first compound 3.16 µM
  viability, T/C: 56.2%
Second compound 0.316 µM, first compound 10 µM
  viability, T/C: 57.4%
Second compound 1 µM, first compound 0.0316 µM
  viability, T/C: 97.9%
Second compound 1 µM, first compound 0.1 µM
  viability, T/C: 88.2%
Second compound 1 µM, first compound 0.316 µM
  viability, T/C: 53.3%
Second compound 1 µM, first compound 1 µM
  viability, T/C: 46.4%
Second compound 1 µM, first compound 3.16 µM
  viability, T/C: 50.3%
Second compound 1 µM, first compound 10 µM
  viability, T/C: 51.3%
Second compound 3.16 µM, first compound 0.0316 µM
  viability, T/C: 82.6%
Second compound 3.16 µM, first compound 0.1 µM
  viability, T/C: 75.3%
Second compound 3.16 µM, first compound 0.316 µM
  viability, T/C: 47.5%
Second compound 3.16 µM, first compound 1 µM
  viability, T/C: 36.4%
Second compound 3.16 µM, first compound 3.16 µM
  viability, T/C: 32.6%
Second compound 3.16 µM, first compound 10 µM
  viability, T/C: 40.4%
Second compound 10 µM, first compound 0.0316 µM
  viability, T/C: 63%
Second compound 10 µM, first compound 0.1 µM
  viability, T/C: 48.4%
Second compound 10 µM, first compound 0.316 µM
  viability, T/C: 29.6%
Second compound 10 µM, first compound 1 µM
  viability, T/C: 28.9%
Second compound 10 µM, first compound 3.16 µM
  viability, T/C: 28%
Second compound 10 µM, first compound 10 µM
  viability, T/C: 25.8%

## O=C(c1ccc(F)c(F)c1Nc1ccc(I)cc1F)N1CC(O)([C@@H]2CCCCN2)C1 + CCn1c(-c2cc(N3CCN(C)CC3)cnc2C(C)OC)c2c3cc(ccc31)-c1csc(n1)CC(NC(=O)C1CC1C)C(=O)N1CCCC(N1)C(=O)OCC(C)(C)C2
Second compound 0.000949 µM
  IC50: 103 nM
Second compound 0.003 µM
  IC50: 10.2 nM
Second compound 0.00949 µM
  IC50: < 3.16 nM
Second compound 0.03 µM
  IC50: < 3.16 nM
Second compound 0.0949 µM
  IC50: < 3.16 nM
Second compound 0.3 µM
  IC50: < 3.16 nM
Second compound 0.000949 µM, first compound 0.00316 µM
  viability, T/C: 66.8%
Second compound 0.000949 µM, first compound 0.01 µM
  viability, T/C: 59.9%
Second compound 0.000949 µM, first compound 0.0316 µM
  viability, T/C: 63.8%
Second compound 0.000949 µM, first compound 0.1 µM
  viability, T/C: 49.5%
Second compound 0.000949 µM, first compound 0.316 µM
  viability, T/C: 29.4%
Second compound 0.000949 µM, first compound 1 µM
  viability, T/C: 9.76%
Second compound 0.003 µM, first compound 0.00316 µM
  viability, T/C: 55.3%
Second compound 0.003 µM, first compound 0.01 µM
  viability, T/C: 49.6%
Second compound 0.003 µM, first compound 0.0316 µM
  viability, T/C: 40.7%
Second compound 0.003 µM, first compound 0.1 µM
  viability, T/C: 25.4%
Second compound 0.003 µM, first compound 0.316 µM
  viability, T/C: 14%
Second compound 0.003 µM, first compound 1 µM
  viability, T/C: 6.79%
Second compound 0.00949 µM, first compound 0.00316 µM
  viability, T/C: 39.3%
Second compound 0.00949 µM, first compound 0.01 µM
  viability, T/C: 36.5%
Second compound 0.00949 µM, first compound 0.0316 µM
  viability, T/C: 27.8%
Second compound 0.00949 µM, first compound 0.1 µM
  viability, T/C: 16.7%
Second compound 0.00949 µM, first compound 0.316 µM
  viability, T/C: 7.84%
Second compound 0.00949 µM, first compound 1 µM
  viability, T/C: 4.42%
Second compound 0.03 µM, first compound 0.00316 µM
  viability, T/C: 23.9%
Second compound 0.03 µM, first compound 0.01 µM
  viability, T/C: 23.5%
Second compound 0.03 µM, first compound 0.0316 µM
  viability, T/C: 18.2%
Second compound 0.03 µM, first compound 0.1 µM
  viability, T/C: 8.87%
Second compound 0.03 µM, first compound 0.316 µM
  viability, T/C: 4.75%
Second compound 0.03 µM, first compound 1 µM
  viability, T/C: 4.55%
Second compound 0.0949 µM, first compound 0.00316 µM
  viability, T/C: 17.6%
Second compound 0.0949 µM, first compound 0.01 µM
  viability, T/C: 12.8%
Second compound 0.0949 µM, first compound 0.0316 µM
  viability, T/C: 8.13%
Second compound 0.0949 µM, first compound 0.1 µM
  viability, T/C: 5.18%
Second compound 0.0949 µM, first compound 0.316 µM
  viability, T/C: 4.88%
Second compound 0.0949 µM, first compound 1 µM
  viability, T/C: 4.22%
Second compound 0.3 µM, first compound 0.00316 µM
  viability, T/C: 14.9%
Second compound 0.3 µM, first compound 0.01 µM
  viability, T/C: 12.6%
Second compound 0.3 µM, first compound 0.0316 µM
  viability, T/C: 6.29%
Second compound 0.3 µM, first compound 0.1 µM
  viability, T/C: 4%
Second compound 0.3 µM, first compound 0.316 µM
  viability, T/C: 3.7%
Second compound 0.3 µM, first compound 1 µM
  viability, T/C: 3.03%
